Measured values as given in article PMC3149978 (Clinical cancer research : an official journal of the …, 2011).
Where two headings read alike, the source gives them in different places.

Legend:
[1] = tested on: Circulating endothelial cells (CECs) and endothelial progenitor cells (CEPs); assay: Circulating endothelial cells and progenitor cells by flow cytometry; format: in vivo, human; conditions: 11 patients with paired baseline and day 28 samples
[2] = tested on: placental growth factor (PlGF); assay: Plasma angiogenic biomarker ELISA, baseline vs day 28 of cycle 1; format: in vivo, human; conditions: baseline to day 28 of cycle 1; 12 patients; p = 0.0003
[3] = tested on: pediatric patients with refractory solid tumors; assay: Phase I dose escalation and toxicity evaluation; format: in vivo, human
[4] = tested on: endoglin; assay: Plasma angiogenic biomarker ELISA, baseline vs day 28 of cycle 1; format: in vivo, human; conditions: baseline to day 28 of cycle 1; 12 patients; p = 0.01
[5] = human, in vivo
[6] = tested on: monocyte counts; assay: Absolute monocyte counts, day 1 vs day 28; format: in vivo, human
[7] = Steady-state trough plasma concentrations in cycle 1
[8] = tested on: refractory solid tumors; assay: Tumor response evaluated by RECIST; format: in vivo, human
[9] = clinical; conditions: human, in vivo, 20 mg/m2
[10] = tested on: VEGF; assay: Plasma angiogenic biomarker ELISA, baseline vs day 28 of cycle 1; format: in vivo, human; conditions: baseline to day 28 of cycle 1; 12 patients; p = 0.002
[11] = tested on: stromal cell -derived factor-1 (SDF-1); assay: as above; format: in vivo, human; conditions: baseline to day 28 of cycle 1; 12 patients
[12] = tested on: adult patients; conditions: cited from earlier work
[13] = Extended pharmacokinetic sampling after the first dose
[14] = in vivo, po
[15] = 17 patients with decreases, day 1 to day 28
[16] = dose level 15 g/m^2 (so in the source), N = 8

## CCN(CC)CCNC(=O)c1c(C)[nH]c(/C=C2\C(=O)Nc3ccc(F)cc32)c1C [Sunitinib]
[1]
  change in totals and subsets of CECs and CEPs: did not reliably change
[2]
  change in plasma placental growth factor concentration: increased significantly
[3]; Patient 2, 15 mg/m^2, Day 28, Cycle 1, doxorubicin 367 mg/m^2, prior cardiac radiation
  cardiac toxicity: Symptomatic diastolic and systolic dysfunction; transient ischemic changes on EKG
[3]; children without prior anthracycline exposure or radiation therapy involving a cardiac field
  maximum tolerated dose: 15 mg/m^2
[3]; human, in vivo
  ALT elevation G1: 11%
  Hypophosphatemia G1: 11%
  Leukopenia G1: 40%
  Thrombocytopenia G1: 40%
[3]; human, in vivo, 1 cycle
  ALT elevation G1: 17%
  AST elevation G1: 33%
  Anemia G1: 25%
  Anorexia G2: 17%
  Diarrhea G1: 33%
  Hypoalbuminemia G1: 25%
  Hypocalcemia G1: 25%
  patients who developed hypothyroidism (≤ grade 2): Three of 23
[3]; human, in vivo, 42 days
  ALT elevation G2: 11%
  Anorexia G1: 11%
  CNS hemorrhage G4: 11%
  Constipation G1: 11%
  Cranial neuropathy G4: 11%
  Decreased serum bicarbonate G1: 11%
  Dehydration G1: 11%
  Diarrhea G1: 11%
  Diarrhea G2: 11%
  Epistaxis G1: 11%
  Eye swelling G1: 11%
  Headache G1: 11%
  Hypernatremia G1: 11%
  Hypertension G1: 11%
  Hyperuricemia G1: 11%
  Hyperuricemia G4: 11%
  Hypoalbuminemia G1: 11%
  Hypomagnesemia G1: 11%
  Hypothyroidism G1: 11%
  Left ventricular systolic dysfunction G2: 17%
  Leukopenia G1: 33%
  Leukopenia G2: 17%
  Leukopenia G3: 25%
  Lipase elevation G1: 11%
  Lymphopenia G1: 17%
  Lymphopenia G3: 17%
  Muscle or joint pain G1: 11%
  Muscle or joint pain G2: 11%
  Neutropenia G2: 17%
  Neutropenia G3: 33%
  Thrombocytopenia G1: 42%
  Thrombocytopenia G2: 25%
  Weight loss G2: 17%
[3]; in vivo
  cardiac dysfunction: No cardiac dysfunction was observed
  changes in hair color and texture: not reported
  growth plate thickening: did not demonstrate any growth plate thickening
  hypertension: rarely reported
  patients who developed hypothyroidism (≤ grade 2): Two patients
[3]; patients without prior anthracycline or cardiac radiation exposure, once daily for 28 days followed by a 14-day break
  maximum tolerated dose: 15 mg/m^2/day
[4]
  change in plasma endoglin concentration: decreased significantly
[5]
  AUC0-48h: 0.698 ng·h/mL
  AUC0-48h, Median: 0.492 ng·h/mL
  AUC0-∞: 0.879 ng·h/mL
  AUC0-∞, Median: 0.747 ng·h/mL
  Tmax, Max: 48.0 h
  Tmax, Min: 2.0 h
  median peak plasma concentration: 16.8 ng/mL
  peak plasma concentration, range: 9.5 to 61.4 ng/mL
  time at which median peak plasma concentration was achieved: 7 h
[6]; [15]
  decrease in AMC, range: 18 to 1253 µL⁻¹
  median decrease in AMC: 117 µL⁻¹
[6]; 18 patients with paired day 1 and day 28 counts
  patients with decreases in absolute monocyte count (AMC): 17
[7]; 15 mg/m^2 dose level
  Css, Max: 57.9 ng/mL
  Css, Median: 28.0 ng/mL
  Css, Min: 13.2 ng/mL
[7]; 20 mg/m^2 dose level
  Css, Max: 65.0 ng/mL
  Css, Median: 36.5 ng/mL
  Css, Min: 28.2 ng/mL
[7]; Patient 1 with cardiac toxicity, 20 mg/m^2
  Day 21 Css sunitinib: 40 ng/mL
[7]; Patient 2 with cardiac toxicity, 15 mg/m^2
  Day 21 Css sunitinib: 18 ng/mL
[7]; once daily oral dosing, cycle 1
  steady state plasma concentrations reached by: ≤ 7 days
[8]; 17 patients evaluable for response
  objective responses: No objective responses were observed
[8]; diffuse pontine glioma (2 cycles), osteosarcoma (4 cycles), epithelioid sarcoma (9 cycles), ganglioglioma (9 cycles)
  patients with best response of stable disease: Four patients
[8]; one patient with neuroblastoma, one cycle at 20 mg/m^2, persistent bone marrow disease
  123I-meta-iodobenzylguanidine scan finding: resolution of the disease noted at baseline
[9]
  Cmax: 26.3 ng/mL
[10]
  change in plasma VEGF concentration: increased significantly
[11]
  change in plasma SDF-1 concentration: did not change in a consistent manner
[12]; adult patients treated with sunitinib, ref [30]-[32]
  incidence of grade 3 or symptomatic congestive heart failure: 7-15%
[12]; adults treated with sunitinib, ref [5], [6], [24], [25]
  cases requiring dose reductions: 11-50%

## CCNCCNC(=O)c1c(C)[nH]c(/C=C2\C(=O)Nc3ccc(F)cc32)c1C [SU12662]
[5]
  Tmax, Max: 48.7 h
  Tmax, Median: 8.0 h
  Tmax, Min: 4.0 h
[5]; 20 mg/m2
  Cmax: 5.3 ng/mL
  Tmax: 8.0 h
[13]; dose level 20 mg/m^2, N = 1
  AR (accumulation ratio = Css/C24h): 4.2
[13]; [16]
  AR (accumulation ratio = Css/C24h), Max: 11.1
  AR (accumulation ratio = Css/C24h), Median: 6.4
  AR (accumulation ratio = Css/C24h), Min: 3.4
[14]
  steady state plasma concentrations reached by: ≤ 7 days
